≈ marks a conversion by molar mass, not a printed value. Like-named read-outs stand apart in the source and are kept apart here.
Tests used:
[1] = molecular target: T1, full-length beta-Catenin (Uniprot ID P35222) (Homo sapiens, UniProt P35222); experiment: Fluorescence polarization IC50 (beta-catenin / 5FAM-TCF4 10-53 competition); format: binding
T1 construct: 10 nM full-length beta-Catenin (Uniprot ID P35222)
T1 sequence (P35222 1-781): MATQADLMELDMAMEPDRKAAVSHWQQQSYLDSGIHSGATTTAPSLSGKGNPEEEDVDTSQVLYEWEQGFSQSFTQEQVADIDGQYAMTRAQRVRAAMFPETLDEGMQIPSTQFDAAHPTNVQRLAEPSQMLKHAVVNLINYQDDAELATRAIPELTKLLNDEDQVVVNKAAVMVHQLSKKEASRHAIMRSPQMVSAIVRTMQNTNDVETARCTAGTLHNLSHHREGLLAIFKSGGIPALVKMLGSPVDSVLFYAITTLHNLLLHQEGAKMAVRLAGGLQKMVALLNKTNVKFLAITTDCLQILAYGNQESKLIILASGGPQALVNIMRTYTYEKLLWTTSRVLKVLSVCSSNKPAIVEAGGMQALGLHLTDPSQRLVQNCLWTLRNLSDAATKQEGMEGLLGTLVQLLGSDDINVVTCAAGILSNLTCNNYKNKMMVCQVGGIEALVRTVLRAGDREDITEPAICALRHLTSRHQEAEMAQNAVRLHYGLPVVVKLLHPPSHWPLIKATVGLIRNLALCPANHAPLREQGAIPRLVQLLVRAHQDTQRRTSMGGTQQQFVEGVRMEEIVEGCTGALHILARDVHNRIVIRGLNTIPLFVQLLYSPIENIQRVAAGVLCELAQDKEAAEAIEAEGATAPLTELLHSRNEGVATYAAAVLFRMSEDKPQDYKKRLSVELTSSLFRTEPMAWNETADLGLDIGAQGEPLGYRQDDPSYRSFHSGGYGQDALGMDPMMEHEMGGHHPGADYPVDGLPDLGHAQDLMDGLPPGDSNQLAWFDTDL

CHI Log D procedure = format: physicochemical; conditions: for CHI Log D: pH 7.4; for chromatographic logD: pH 7.4, CHI Log D
Solubility in PBS = format: physicochemical
Method in brief: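 Steps: ultracentrifuge the peptide PBS solution, inject the supernatant on HPLC, inject a 50 μM peptide DMSO solution as reference, then calculate solubility as area ratio (PBS/DMSO) × 50 uM.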

[2] = fluorescence polarization, read-out: beta-Catenin FP IC50

Structure (SMILES)	IC50 [1, 2] [nM]	IC50 ([1]; read-out: FP EC50) [nM]	CHI Log D (CHI Log D procedure)	Solubility (Solubility in PBS) [µM]	chromatographic logD (CHI Log D procedure)	Solubility (Solubility in PBS; Solubility (uM)) [µM]
CC(=O)N1CCC[C@]12CC=CCCCC1(CCCC=CCCCCCC[C@@](C)(C(=O)N[C@@H](CCc3ccccc3)C(=O)N[C@@H](Cc3csc4ccccc34)C(=O)N[C@@H](CCC(N)=O)C(N)=O)NC(=O)[C@H](CC(N)=O)NC(=O)[C@H](Cc3ccccc3)NC(=O)[C@H](C)NC(=O)[C@H](C)NC(=O)[C@H](CCC(=O)O)NC(=O)[C@H](CC(=O)O)NC1=O)NC(=O)[C@H](C)NC(=O)[C@H](CC(=O)O)NC2=O (stereo partly drawn) [I-442, Ac-PL3-Asp-Ala-B5-Asp-Glu-Ala-Ala-Phe-Asn-S8-hPhe-BztA-Gln-NH2]	4480	4480	2.098	40 (≈ 73.6 µg/mL)	–	–
CC(=O)N1CCC[C@]12CC=CCCCC1(CCCC=CCCCCCC[C@@](C)(C(=O)N[C@@H](CCc3ccccc3)C(=O)N[C@@H](Cc3csc4ccccc34)C(=O)N[C@@H](CCC(N)=O)C(N)=O)NC(=O)[C@H](CC(N)=O)NC(=O)[C@H](Cc3ccccc3)NC(=O)[C@H](C)NC(=O)[C@H](C)NC(=O)[C@H](CCC(=O)O)NC(=O)[C@H](CC(=O)O)NC1=O)NC(=O)[C@H](C)NC(=O)[C@H](CC(=O)O)NC2=O (stereo partly drawn) [I-443, Ac-PL3-Asp-Ala-B5-Asp-Glu-Ala-Ala-Phe-Asn-S8-hPhe-BztA-Gln-NH2]	2130	2130	2.128	50 (≈ 92.1 µg/mL)	–	–
CC(=O)N1CCC[C@]12CC=CCCCC1(CCCC=CCCCCCC[C@@](C)(C(=O)N[C@@H](Cc3ccccc3)C(=O)N[C@@H](Cc3csc4ccccc34)C(=O)N[C@@H](CCC(N)=O)C(N)=O)NC(=O)[C@H](CC(N)=O)NC(=O)[C@H](Cc3ccccc3)NC(=O)[C@H](C)NC(=O)[C@H](C)NC(=O)[C@H](Cc3nn[nH]n3)NC(=O)[C@H](CC(=O)O)NC1=O)NC(=O)[C@H](C)NC(=O)[C@H](CC(=O)O)NC2=O (stereo partly drawn) [I-444, Ac-PL3-Asp-Ala-B5-Asp-Tetz-Ala-Ala-Phe-Asn-S8-Phe-BztA-Gln-NH2]	80	–	–	50 (≈ 91.9 µg/mL)	1.99	–
CC(=O)N1CCC[C@]12CC=CCCCC1(CCCC=CCCCCCC[C@@](C)(C(=O)N[C@@H](Cc3ccccc3)C(=O)N[C@@H](Cc3csc4ccccc34)C(=O)N[C@@H](CCC(N)=O)C(N)=O)NC(=O)[C@H](CC(N)=O)NC(=O)[C@H](Cc3ccccc3)NC(=O)[C@H](C)NC(=O)[C@H](C)NC(=O)[C@H](CC(=O)O)NC(=O)[C@H](Cc3nn[nH]n3)NC1=O)NC(=O)[C@H](C)NC(=O)[C@H](CC(=O)O)NC2=O (stereo partly drawn) [I-445, Ac-PL3-Asp-Ala-B5-Tetz-Asp-Ala-Ala-Phe-Asn-S8-Phe-BztA-Gln-NH2]	4960	–	–	–	2.05	43 (≈ 79 µg/mL)
CC(=O)N1CCC[C@]12CC=CCCCC1(CCCC=CCCCCCC[C@@](C)(C(=O)N[C@@H](Cc3ccccc3)C(=O)N[C@@H](Cc3csc4ccccc34)C(=O)N[C@@H](CCC(N)=O)C(N)=O)NC(=O)[C@H](CC(N)=O)NC(=O)[C@H](Cc3cccs3)NC(=O)[C@H](C)NC(=O)[C@H](C)NC(=O)[C@H](CCC(=O)O)NC(=O)[C@H](CC(=O)O)NC1=O)NC(=O)[C@H](C)NC(=O)[C@H](CC(=O)O)NC2=O (stereo partly drawn) [I-446, Ac-PL3-Asp-Ala-B5-Asp-Glu-Ala-Ala-2Thi-Asn-S8-Phe-BztA-Gln-NH2]	130	130	1.97	44 (≈ 80.7 µg/mL)	–	–
CC(=O)N1CCC[C@]12CC=CCCCC1(CCCC=CCCCCCC[C@@](C)(C(=O)N[C@@H](Cc3ccccc3)C(=O)N[C@@H](Cc3csc4ccccc34)C(=O)N[C@@H](CCC(N)=O)C(N)=O)NC(=O)[C@H](CC(N)=O)NC(=O)[C@H](Cc3cccs3)NC(=O)[C@H](C)NC(=O)[C@H](C)NC(=O)[C@H](CCC(=O)O)NC(=O)[C@H](CC(=O)O)NC1=O)NC(=O)[C@H](C)NC(=O)[C@H](CC(=O)O)NC2=O (stereo partly drawn) [I-447, Ac-PL3-Asp-Ala-B5-Asp-Glu-Ala-Ala-2Thi-Asn-S8-Phe-BztA-Gln-NH2]	74	74	1.996	50 (≈ 91.7 µg/mL)	–	–
CC(=O)N1CCC[C@]12CC=CCCCC1(CCCC=CCCCCCC[C@@](C)(C(=O)N[C@@H](Cc3ccccc3)C(=O)N[C@@H](Cc3csc4ccccc34)C(=O)N[C@@H](CCC(N)=O)C(N)=O)NC(=O)[C@H](CC(N)=O)NC(=O)[C@H](Cc3ccsc3)NC(=O)[C@H](C)NC(=O)[C@H](C)NC(=O)[C@H](CCC(=O)O)NC(=O)[C@H](CC(=O)O)NC1=O)NC(=O)[C@H](C)NC(=O)[C@H](CC(=O)O)NC2=O (stereo partly drawn) [I-448, Ac-PL3-Asp-Ala-B5-Asp-Glu-Ala-Ala-3Thi-Asn-S8-Phe-BztA-Gln-NH2]	92	92	1.976	50 (≈ 91.7 µg/mL)	–	–
CC(=O)N1CCC[C@]12CC=CCCCC1(CCCC=CCCCCCC[C@@](C)(C(=O)N[C@@H](Cc3ccccc3)C(=O)N[C@@H](Cc3csc4ccccc34)C(=O)N[C@@H](CCC(N)=O)C(N)=O)NC(=O)[C@H](CC(N)=O)NC(=O)[C@H](Cc3ccsc3)NC(=O)[C@H](C)NC(=O)[C@H](C)NC(=O)[C@H](CCC(=O)O)NC(=O)[C@H](CC(=O)O)NC1=O)NC(=O)[C@H](C)NC(=O)[C@H](CC(=O)O)NC2=O (stereo partly drawn) [I-449, Ac-PL3-Asp-Ala-B5-Asp-Glu-Ala-Ala-3Thi-Asn-S8-Phe-BztA-Gln-NH2]	53	53	1.998	30 (≈ 55 µg/mL)	–	–
CC(=O)N1CCC[C@]12CC=CCCCC1(CCCC=CCCCCCC[C@@](C)(C(=O)N[C@@H](Cc3cccc(F)c3)C(=O)N[C@@H](Cc3c[nH]c4ccccc34)C(=O)N[C@@H](CCC(N)=O)C(N)=O)NC(=O)[C@H](CCC(N)=O)NC(=O)[C@H](Cc3cccs3)NC(=O)[C@H](C)NC(=O)[C@H](C)NC(=O)[C@H](CCC(=O)O)NC(=O)[C@H](CC(=O)O)NC1=O)NC(=O)[C@H](C)NC(=O)[C@H](CC(=O)O)NC2=O (stereo partly drawn) [I-450, Ac-PL3-Asp-Ala-B5-Asp-Glu-Ala-Ala-2Thi-Gln-S8-3FF-Trp-Gln-NH2]	3720	–	–	50 (≈ 92.4 µg/mL)	1.88	–
CC(=O)N1CCC[C@]12CC=CCCCC1(CCCC=CCCCCCC[C@@](C)(C(=O)N[C@@H](Cc3cccc(F)c3)C(=O)N[C@@H](Cc3c[nH]c4ccccc34)C(=O)N[C@@H](CCC(N)=O)C(N)=O)NC(=O)[C@H](CCC(N)=O)NC(=O)[C@H](Cc3ccsc3)NC(=O)[C@H](C)NC(=O)[C@H](C)NC(=O)[C@H](CCC(=O)O)NC(=O)[C@H](CC(=O)O)NC1=O)NC(=O)[C@H](C)NC(=O)[C@H](CC(=O)O)NC2=O (stereo partly drawn) [I-452, Ac-PL3-Asp-Ala-B5-Asp-Glu-Ala-Ala-3Thi-Gln-S8-3FF-Trp-Gln-NH2]	1660	1660	1.917	50 (≈ 92.4 µg/mL)	–	–
CC(=O)N1CCC[C@]12CC=CCCCC1(CCCC=CCCCCCC[C@@](C)(C(=O)N[C@@H](Cc3ccccc3)C(=O)N[C@@H](Cc3csc4ccccc34)C(=O)N[C@@H](Cc3c[nH]cn3)C(N)=O)NC(=O)[C@H](CC(N)=O)NC(=O)[C@H](Cc3ccccc3)NC(=O)[C@H](C)NC(=O)[C@H](C)NC(=O)[C@H](CC(=O)O)NC(=O)[C@H](CC(=O)O)NC1=O)NC(=O)[C@H](C)NC(=O)[C@H](CC(=O)O)NC2=O (stereo partly drawn) [I-465, Ac-PL3-Asp-Ala-B5-Asp-Asp-Ala-Ala-Phe-Asn-S8-Phe-BztA-His-NH2]	81	81	2.023	40 (≈ 72.9 µg/mL)	–	–
CC(=O)N1CCC[C@]12CC=CCCCC1(CCCC=CCCCCCC[C@@](C)(C(=O)N[C@@H](Cc3ccccc3)C(=O)N[C@@H](Cc3csc4ccccc34)C(=O)N[C@@H](Cc3c[nH]cn3)C(N)=O)NC(=O)[C@H](CC(N)=O)NC(=O)[C@H](Cc3ccccc3)NC(=O)[C@H](C)NC(=O)[C@H](C)NC(=O)[C@H](CC(=O)O)NC(=O)[C@H](CC(=O)O)NC1=O)NC(=O)[C@H](C)NC(=O)[C@H](CC(=O)O)NC2=O (stereo partly drawn) [I-466, Ac-PL3-Asp-Ala-B5-Asp-Asp-Ala-Ala-Phe-Asn-S8-Phe-BztA-His-NH2]	19	19	2.069	50 (≈ 91.1 µg/mL)	–	–

From patent US20240116985A1, “STAPLED PEPTIDES AND METHODS THEREOF” (priority 2020, published 2024)
